Laboratory results taken from patent publication US6878701B2, “Potassium channel blocking agents” (Neurosearch A/S, priority 1999, dated 2005).

Molecular target: T1, small-conductance Ca2+-activated K+ channels (SK channels, isoform 2) (Rattus norvegicus, UniProt P70604)
T1 construct: expressed in transfected cells; host or cells: HEK293
Test: Whole-cell patch-clamp recording of SK channel current in stably transfected HEK293 cells
Type: cell-based
Details: rat SK2 stably expressed in HEK293 cells, room temperature, IC50 = Koff/Kon from kinetics of the block, read-out: biological activity determined as IC50
Description: In this experiment. small-conductance Ca^2+-activated K^+ channels (SK channels, isoform 2) cloned from a rat cDNA library were stably expressed in HEK293 cells using standard procedures. The ionic current through the channels was recorded in the whole-cell mode of the patch-clamp technique.
Cells plated on coverstips are placed in a 15 μl perfusion chamber (flowrate ˜1 ml/min), mounted on a IMT-2 microscope equipped with Nomarski or Hoffmann optics. The microscopes are placed on vibration-free tables in grounded Faraday cages.
All experiments are performed at room temperature (20-22° C.). […] Data are stored directly on the harddisk and analysed by the IGOR software according to the manufacturer's instructions.
The whole-cell configuration of the patch clamp technique is applied. […] Cell capacitance is electronically compensated and the resistance between the pipette and the cell interior (the series resistance, Rs) is measured and compensated for. […]
In the experiments where the effect of channel activators is quantified (test 475), the intracellular (pipette) solution has the following composition (concentration in mM):
The calculated free concentration of Ca^2+ in this solution is 100 nM, and that of Mg^2+ is 1 mM. In these experiments, the concentration of CaCl2 is 7.6 mM and that of MgCl2 is 1.2 mM to give calculated free concentrations of 300 nM and 1 mM, respectively. […]

IC50: < 1 µM
SMILES: CN1CCN(C)c2nc(c3ccccc3n2)NCC2CCCC(CNc3nc1nc1ccccc31)C2 [Compound 2, 20,23-dimethyl-2,10,18,20,23,25,32,33-octaazahexacyclo [22.7.1.1^4.8.1^11,19.0^12,17.0^26,31] tetratriaconta-1(32).11,13,15,17,19(33),24,26,28,30-decaene]
